ChEMBL document CHEMBL2331208, “Steroids glycosylated with both D- and L-arabinoses from the South China Sea gorgonian Dichotella gemmacea” (J Nat Prod, 2013)
Counter-ions that a name gives are not always drawn.

Columns and labels:
[1] = test system: A549; assay: Cytotoxicity against human A549 cells by MTT assay; assay type: functional, cell-based
[2] = test system: MG-63; assay: Cytotoxicity against human MG63 cells by MTT assay; assay type: functional, cell-based

SMILES	IC50 [1] [µM]	IC50 [2] [µM]
CC(=O)OC(C)(C)C/C=C/[C@@H](C)[C@H]1CC[C@H]2[C@@H]3CC=C4C[C@@H](O[C@@H]5OC[C@@H](O)[C@@H](O)[C@@H]5O)CC[C@]4(CO)[C@H]3CC[C@]12C [JUNCEELLOSIDE F]	> 50	23
CC(=O)OC(C)(C)CCC[C@@H](C)[C@H]1CC[C@H]2[C@@H]3CC=C4C[C@@H](O[C@H]5OC[C@H](O)[C@H](O)[C@H]5O)CC[C@]4(CO)[C@H]3CC[C@]12C [JUNCEELLOSIDE C]	11.4	17.2
CC(=O)O[C@@H]1[C@H](O[C@H]2CC[C@@]3(CO)C(=CC[C@@H]4[C@@H]3CC[C@]3(C)[C@@H]([C@H](C)CCCC(C)(C)OC(C)=O)CC[C@@H]43)C2)OC[C@@H](O)[C@H]1O [JUNCEELLOSIDE G]	13.9	23
C=C(CC[C@@H](C)[C@H]1CC[C@H]2[C@@H]3CC=C4C[C@@H](O[C@H]5OC[C@H](O)[C@H](O)[C@H]5O)CC[C@]4(CO)[C@H]3CC[C@]12C)C(C)(C)OC(C)=O [JUNCEELLOSIDE E]	> 50	> 50
COc1cccc2c1C(=O)c1c(O)c3c(c(O)c1C2=O)C[C@@](O)(C(=O)CO)C[C@@H]3O[C@H]1C[C@H](N)[C@H](O)[C@H](C)O1 [DOXORUBICIN HYDROCHLORIDE]		3.4
